This is an account of results in patent US20230117920A1, “Library Construction Method, Cyclic Peptide, FXIIa Binder and IFNGR1 Binder” (The University of Tokyo, priority 2019, published 2023).

Assay [1] concerns the target FXIIa (Homo sapiens, UniProt P00748). The assay can be described thus: biochemical.
In assay [2] the target is human factor XIIa (FXIIa) (Homo sapiens, UniProt P00748). The assay can be described thus: biochemical. Conditions: for kon: read-out: ka.
In assay [3] the target is interferon γ receptor 1 (IFNGR1) (Homo sapiens, UniProt P15260). Briefly: biochemical. The settings on record: for kon: read-out: ka.
The target of assay [4] is human factor XIIa (activated blood coagulation factor XII) (human) (UniProt P00748). The assay can be described thus: SPR, Biacore T200, 25 C, single cycle kinetics, 1:1 model.
For assay [5], the target named is T1, human factor XIIa (activated blood coagulation factor XII) (human, UniProt P00748 20-615, limits assumed, biotinylated (site not stated)).
T1 construct: The construct used for SPR, for the Ki assay and for the cocrystal is not described; The same entry is used for all three; also called FXIIa; FXIIA
T1 sequence (looked up): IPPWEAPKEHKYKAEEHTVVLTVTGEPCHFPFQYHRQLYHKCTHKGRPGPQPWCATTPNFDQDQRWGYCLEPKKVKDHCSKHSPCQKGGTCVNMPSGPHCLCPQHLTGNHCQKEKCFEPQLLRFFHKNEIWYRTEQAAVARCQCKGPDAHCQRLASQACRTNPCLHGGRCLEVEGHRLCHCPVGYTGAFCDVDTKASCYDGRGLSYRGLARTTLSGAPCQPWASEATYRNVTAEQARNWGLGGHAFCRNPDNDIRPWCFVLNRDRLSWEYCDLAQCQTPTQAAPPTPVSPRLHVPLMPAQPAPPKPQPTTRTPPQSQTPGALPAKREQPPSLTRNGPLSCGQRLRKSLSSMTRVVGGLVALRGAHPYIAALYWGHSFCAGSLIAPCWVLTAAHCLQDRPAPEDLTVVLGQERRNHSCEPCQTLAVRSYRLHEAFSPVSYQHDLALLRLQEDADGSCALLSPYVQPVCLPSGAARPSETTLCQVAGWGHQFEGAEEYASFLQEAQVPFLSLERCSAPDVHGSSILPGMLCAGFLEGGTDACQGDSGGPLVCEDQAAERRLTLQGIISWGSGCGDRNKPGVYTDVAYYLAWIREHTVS
The assay is described as above.

What is called Ki is the dissociation constant of the complex between target and ligand, obtained from inhibition or displacement. In general, Kd refers to the free concentration of one partner at which half of the binding sites on the other are occupied at equilibrium, for simple one-to-one binding. One may read the koff as a measure of how fast the partners let go of each other. The low end stands for a long-lived complex, the high end for a short-lived complex.

Starred links: 1 amine or outer side, 2 acyl side, 3 side chain; linkers in the order of their positions; H or OH if unused. Positions of bridges follow the written chain, without caps; N, C: chain ends. Non-standard residues stand in square brackets, D forms with d. Residues, ends and D or L forms follow the SMILES beside them. No end group written: not given here. ACHC(1S,2S) = O=C([C@H]1CCCC[C@@H]1N[*:1])[*:2]; X1 = O=C([C@@H]1CCC[C@H]1N[*:1])[*:2]; X2 = O=C([C@H]1CCC[C@@H]1N[*:1])[*:2]

In assay [1], `CC(C)C[C@@H]1NC(=O)[C@H](Cc2ccc(O)cc2)NC(=O)[C@H](CO)NC(=O)[C@@H]2CCC[C@H]2NC(=O)[C@H](CC(N)=O)NC(=O)[C@H](Cc2ccccc2)NC(=O)[C@H](CC(C)C)NC(=O)[C@H](CCCNC(=N)N)NC(=O)[C@@H]2CCCN2C(=O)[C@@H](Cc2ccc(O)cc2)NC(=O)CSC[C@H](C(=O)NCC(N)=O)NC(=O)[C@H](CCCNC(=N)N)NC(=O)[C@H](CCCNC(=N)N)NC1=O` [F2] ({CH2CO}-[dY]PRLFN[X1]SYLRR[dC]G-NH2; thioether N-13) yielded a Ki of 2.14 nM. Moreover, in assay [2], binding was put at a Kd of 0.58 nM and the kon is 3.07e+07 M⁻¹ s⁻¹. With `CC(C)C[C@@H]1NC(=O)[C@H](CO)NC(=O)[C@H](Cc2ccccc2)NC(=O)[C@@H](Cc2ccc(O)cc2)NC(=O)CSC[C@H](C(=O)NCC(N)=O)NC(=O)CNC(=O)[C@H](CCCNC(=N)N)NC(=O)[C@H](CO)NC(=O)[C@H](CCCNC(=N)N)NC(=O)[C@H](CC(N)=O)NC(=O)[C@H](Cc2ccccc2)NC(=O)[C@H](CO)NC(=O)[C@@H]2CCC[C@H]2NC(=O)[C@H](CCCNC(=N)N)NC1=O` [I1-4] ({CH2CO}-[dY]FSLR[X1]SFNRSRG[dC]G-NH2; thioether N-14), in assay [3], the dissociation constant (Kd) was 5.76 nM and the kon is 3.39e+06 M⁻¹ s⁻¹. Regarding `CC(C)C[C@@H]1NC(=O)[C@H](Cc2ccc(O)cc2)NC(=O)[C@H](CO)NC(=O)[C@H](C)NC(=O)[C@H](CC(N)=O)NC(=O)[C@H](Cc2ccccc2)NC(=O)[C@H](CC(C)C)NC(=O)[C@H](CCCNC(=N)N)NC(=O)[C@@H]2CCCN2C(=O)[C@@H](Cc2ccc(O)cc2)NC(=O)CSC[C@H](C(N)=O)NC(=O)[C@H](CCCNC(=N)N)NC(=O)[C@H](CCCNC(=N)N)NC1=O` [F2A] ({CH2CO}-[dY]PRLFNASYLRR[dC]-NH2; thioether N-13), the kon in assay [2] came out at 4.75e+06 M⁻¹ s⁻¹.

Turning to `CC(C)[C@@H]1NC(=O)CNC(=O)[C@H](Cc2ccccc2)NC(=O)[C@@H](Cc2ccc(O)cc2)NC(=O)CSC[C@H](C(=O)NCC(N)=O)NC(=O)[C@H]([C@@H](C)O)NC(=O)[C@H](CCCNC(=N)N)NC(=O)[C@H](CC(N)=O)NC(=O)[C@H](Cc2ccc(O)cc2)NC(=O)[C@H](Cc2ccccc2)NC(=O)[C@@H]2CCC[C@H]2NC(=O)[C@H](CCCNC(=N)N)NC1=O` [I1-1] ({CH2CO}-[dY]FGVR[X1]FYNRT[dC]G-NH2; thioether N-12), in assay [3], the equilibrium dissociation constant (Kd) is 5 nM and the kon is 1.74e+06 M⁻¹ s⁻¹. `CC(C)C[C@@H]1NC(=O)[C@H]2CCCC[C@@H]2NC(=O)[C@H](CCCNC(=N)N)NC(=O)[C@H](CCCNC(=N)N)NC(=O)[C@H](CC(=O)O)NC(=O)[C@H](Cc2ccc(O)cc2)NC(=O)[C@H](C)NC(=O)[C@H](Cc2ccccc2)NC(=O)[C@@H](Cc2ccc(O)cc2)NC(=O)CSC[C@H](C(=O)NCC(N)=O)NC(=O)[C@H](Cc2ccc(O)cc2)NC(=O)[C@H](CC(N)=O)NC(=O)[C@H](CCCNC(=N)N)NC(=O)[C@H]2CCCC[C@@H]2NC(=O)[C@H](CC(N)=O)NC(=O)[C@H](CC(N)=O)NC(=O)[C@H](CO)NC1=O` [F3] ({CH2CO}-[dY]FAYDRR[ACHC(1S,2S)]LSNN[ACHC(1S,2S)]RNY[dC]G-NH2; thioether N-17): the kon in assay [2] came out at 1.59e+06 M⁻¹ s⁻¹.

The molecule `CC(C)C[C@@H]1NC(=O)[C@H](CCCNC(=N)N)NC(=O)[C@@H]2CCC[C@H]2NC(=O)[C@H](CCCNC(=N)N)NC(=O)[C@H]([C@@H](C)O)NC(=O)[C@H](CO)NC(=O)[C@H](CCCNC(=N)N)NC(=O)[C@H](CC(=O)O)NC(=O)[C@H](CC(N)=O)NC(=O)[C@@H](Cc2ccc(O)cc2)NC(=O)CSC[C@H](C(=O)NCC(N)=O)NC(=O)[C@H](C)NC(=O)[C@H](C(C)C)NC1=O` [F1] ({CH2CO}-[dY]NDRSTR[X1]RLVA[dC]G-NH2; thioether N-13) registered an inhibition constant Ki in assay [1] of 22.1 nM. Besides, in assay [2], the equilibrium dissociation constant (Kd) is 8.21 nM and the kon turned out to be 2.74e+06 M⁻¹ s⁻¹.

On to `CC(C)C[C@@H]1NC(=O)CNC(=O)[C@H](C(C)C)NC(=O)[C@@H](Cc2ccc(O)cc2)NC(=O)CSC[C@H](C(=O)NCC(N)=O)NC(=O)[C@H]([C@@H](C)O)NC(=O)[C@H](CCCNC(=N)N)NC(=O)[C@H](CC(N)=O)NC(=O)[C@H](CC(C)C)NC(=O)[C@H](CO)NC(=O)[C@@H]2CCC[C@H]2NC(=O)[C@H](CC(N)=O)NC1=O` [I1-3] ({CH2CO}-[dY]VGLN[X1]SLNRT[dC]G-NH2; thioether N-12), for which, in assay [3], the Kd amounted to 150 nM and the kon came out at 1.41e+06 M⁻¹ s⁻¹. In the case of `CC(C)C[C@@H]1NC(=O)[C@H](CCCNC(=N)N)NC(=O)[C@H](C)NC(=O)[C@H](CCCNC(=N)N)NC(=O)[C@H]([C@@H](C)O)NC(=O)[C@H](CO)NC(=O)[C@H](CCCNC(=N)N)NC(=O)[C@H](CC(=O)O)NC(=O)[C@H](CC(N)=O)NC(=O)[C@@H](Cc2ccc(O)cc2)NC(=O)CSC[C@H](C(N)=O)NC(=O)[C@H](C)NC(=O)[C@H](C(C)C)NC1=O` [F1A] ({CH2CO}-[dY]NDRSTRARLVA[dC]-NH2; thioether N-13), the kon in assay [2] turned out to be 580000 M⁻¹ s⁻¹.

`CC(C)C[C@@H]1NC(=O)[C@H](CC(N)=O)NC(=O)[C@H](Cc2ccc(O)cc2)NC(=O)[C@H](CCCNC(=N)N)NC(=O)[C@@H]2CCCN2C(=O)[C@@H](Cc2ccc(O)cc2)NC(=O)CSC[C@H](C(=O)NCC(N)=O)NC(=O)[C@H](CC(N)=O)NC(=O)[C@@H]2CCC[C@H]2NC(=O)[C@H](Cc2ccccc2)NC(=O)[C@H](CCCNC(=N)N)NC(=O)[C@@H]2CCCN2C(=O)[C@H](CO)NC(=O)[C@H](C)NC(=O)CNC(=O)[C@H]2CCC[C@@H]2NC1=O` [I2] ({CH2CO}-[dY]PRYNL[X2]GASPRF[X1]N[dC]G-NH2; thioether N-16): in assay [3], the Kd was 12.3 nM and the kon worked out at 1.98e+06 M⁻¹ s⁻¹. For `CC(C)C[C@@H]1NC(=O)[C@H](C)NC(=O)[C@H](Cc2ccccc2)NC(=O)[C@@H](Cc2ccc(O)cc2)NC(=O)CSC[C@H](C(=O)NCC(N)=O)NC(=O)[C@H](CCCNC(=N)N)NC(=O)[C@H](CCCNC(=N)N)NC(=O)[C@H](CC(N)=O)NC(=O)[C@H]2CCCC[C@@H]2NC(=O)[C@H](CCCNC(=N)N)NC(=O)[C@@H]2CCC[C@H]2NC(=O)[C@H](CC(N)=O)NC1=O` [I1-5] ({CH2CO}-[dY]FALN[X1]R[ACHC(1S,2S)]NRR[dC]G-NH2; thioether N-12) the same measures were 336 nM and 3.01e+06 M⁻¹ s⁻¹. With `CC(C)[C@@H]1NC(=O)CNC(=O)[C@H](Cc2ccccc2)NC(=O)[C@@H](Cc2ccc(O)cc2)NC(=O)CSC[C@H](C(=O)NCC(N)=O)NC(=O)[C@H]([C@@H](C)O)NC(=O)[C@H](CCCNC(=N)N)NC(=O)[C@H](CC(N)=O)NC(=O)[C@H](Cc2ccc(O)cc2)NC(=O)[C@H](Cc2ccccc2)NC(=O)[C@@H]2CCC[C@H]2NC(=O)[C@H]2CCC[C@@H]2NC1=O` [I1-6] ({CH2CO}-[dY]FGV[X2][X1]FYNRT[dC]G-NH2; thioether N-12), in assay [3], the Kd is 1.87 nM and the kon is 920000 M⁻¹ s⁻¹.

B1: F4 (peptide)
peptide: YRYTXNRLFXNAC
modifications: not fully specified; 1: D-Tyr, N-acetylated (from N-chloroacetyl-D-Tyr), thioether to D-Cys 13 (cyclic peptide); 5 and 10 (X, printed '1'): (1S,2S)-2-ACHC; 13: D-Cys
Molecule B1 gave a koff in assay [4] of 0.0085 s⁻¹.

B2: F1 (peptide)
peptide: YNDRSTRXRLVAC
modifications: not fully specified; 1: D-Tyr, N-acetylated (from N-chloroacetyl-D-Tyr), the acetyl joined by a thioether bond to the thiol of D-Cys 13 (cyclic peptide); 8 (X, printed '2'): (1R,2R)-2-ACPC; 13: D-Cys
For the molecule B2, the koff in assay [4] turned out to be 0.0225 s⁻¹.

B3: F2 (peptide)
peptide: YPRLFNXSYLRRC
modifications: not fully specified; 1: D-Tyr, N-acetylated (from N-chloroacetyl-D-Tyr), thioether to D-Cys 13 (cyclic peptide); 7 (X, printed '2'): (1R,2R)-2-ACPC; 13: D-Cys
In assay [4], B3 came in with a koff of 0.0178 s⁻¹.

B4: F1A (peptide)
peptide: {CH2CO}-[dY]NDRSTRARLVA[dC]
modifications: thioether N-13
notes: also called negative control peptide of F1; Ala mutant F1A
As for B4, in assay [5], binding was put at a Kd of 51.3 nM and the koff worked out at 0.0297 s⁻¹.
